# Source: patent US8969589B2, “Compounds acting at multiple prostaglandin receptors giving a general anti-inflammatory response” (Allergan, Inc., priority 2011, dated 2015)
# Tests used:
# Format in all cases: cell-based
# [1] = molecular target: T1, human prostanoid FP receptor (Homo sapiens, UniProt P43088); test: FLIPR Ca2+ signaling PG antagonist assay, FP stable cell line; details: antagonist Kb vs standard agonist 17-phenyl-PGF2α; HEK-293 EBNA cells
# T1 construct: expressed in transfected cells
# T1 sequence (P43088 whole entry): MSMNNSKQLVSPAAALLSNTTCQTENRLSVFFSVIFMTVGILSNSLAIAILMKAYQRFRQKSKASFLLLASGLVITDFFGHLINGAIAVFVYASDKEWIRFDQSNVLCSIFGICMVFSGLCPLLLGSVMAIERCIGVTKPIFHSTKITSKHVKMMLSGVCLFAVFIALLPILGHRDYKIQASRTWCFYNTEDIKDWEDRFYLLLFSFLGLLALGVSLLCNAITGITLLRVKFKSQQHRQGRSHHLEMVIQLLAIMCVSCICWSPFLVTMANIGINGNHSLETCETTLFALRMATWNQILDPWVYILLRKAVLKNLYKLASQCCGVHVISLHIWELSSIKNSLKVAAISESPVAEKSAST
# Procedure: (§1) The above compounds were tested for PG antagonist activity as follows using human recombinant prostanoid receptor (DP1, EP1-4, FP, IP and TP) stable cell lines:
# (§2) In order to measure the response of Gs and Gi coupled prostanoid receptors as a Ca^2+ signal, chimeric G protein cDNAs were used. Stable cell lines over-expressing human prostanoid DP1, EP1-4, FP, IP, and TP receptors were established as follows:
# (§3) Briefly, human prostanoid DP1, EP2, and EP4 receptor cDNAs were co-transfected with chimeric Gqs cDNA containing a haemagglutanin (HA) epitope; human prostanoid EP3 receptors were co-transfected with chimeric Gqi-HA; human EP1, FP, IP, and TP receptor cDNAs were expressed with no exogenous G-proteins. Gqs and Gqi chimeric cDNAs (Molecular Devices, Sunnyvale, Calif., U.S.A.), as well as cDNAs of prostanoid receptors, were cloned into a pCEP4 vector with a hygromycin B selection marker. Transfection into HEK-293 EBNA (Epstein-Barr virus nuclear antigen) cells was achieved by the FuGENE 6 transfection Reagent (Roche Applied Science, Indianapolis, Ind., USA). Stable transfectants were selected according to hygromycin resistance. Because Gqs and Gqi contained an HA epitope, G-protein expression was detected by Western blotting analysis using anti-mouse HA monoclonal antibody and horseradish peroxidase (HRP)-conjugated secondary antibody, while functional expression of prostanoid receptors was detected by FLIPR screening (Matias et al., 2004). These stable cell lines were validated using previously published antagonists at 10 μM against serial dilutions of standard agonists by FLIPR functional assays for Ca^2− Signaling (as described below).
# (§4) Ca^2+ signaling studies were performed using a FLIPR TETRA system (Molecular Devices, Sunnyvale, Calif., USA) in the 384-format. This is a high-throughput instrument for cell-based assays to monitor Ca^2+ signaling associated with GPCRs and ion channels. Cells were seeded at a density of 5×10^4 cells/well in BioCoat poly-D-lysine coated, black wall, clear bottom 384-well plates (BD Biosciences, Franklin lakes, N.J., USA) and allowed to attach overnight in an incubator at 37° C. The cells were then washed twice with HBSS-HEPES buffer (Hanks' balanced salt solution without bicarbonate and phenol red, 20 mM HEPES, pH 7.4) using an ELx405 Select CW Microplate Washer (BioTek, Winooski, Vt., USA). […] Cells were excited with LED (light emitting diode) excitation at 470-495 nm and emission was measured through an emission filter at 515-575 nm. Assay plates were read for 3.5 minutes using the FLIPR^TETRA. The peak increase in fluorescence intensity was recorded for each well. […]
# [2] = molecular target: T2, human prostanoid DP1 receptor (Homo sapiens, UniProt Q13258); test: FLIPR Ca2+ signaling PG antagonist assay, DP1 stable cell line; details: antagonist Kb vs standard agonist BW 245C; HEK-293 EBNA cells with chimeric Gqs
# T2 construct: expressed in transfected cells
# T2 sequence (Q13258 1-359): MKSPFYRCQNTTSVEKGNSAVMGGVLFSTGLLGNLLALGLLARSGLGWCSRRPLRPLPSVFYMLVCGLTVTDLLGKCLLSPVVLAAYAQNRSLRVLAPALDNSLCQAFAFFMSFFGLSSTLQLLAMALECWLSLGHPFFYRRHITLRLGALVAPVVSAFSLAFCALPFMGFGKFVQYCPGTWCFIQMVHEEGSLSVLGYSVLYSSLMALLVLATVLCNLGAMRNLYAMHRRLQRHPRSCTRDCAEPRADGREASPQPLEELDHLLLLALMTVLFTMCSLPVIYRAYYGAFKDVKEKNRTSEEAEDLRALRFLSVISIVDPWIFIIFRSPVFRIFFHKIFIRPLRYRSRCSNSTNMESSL
# Procedure: as §1, §2, §3, §4
# [3] = molecular target: T3, human prostanoid EP1 receptor (Homo sapiens, UniProt P34995); test: FLIPR Ca2+ signaling PG antagonist assay, EP1 stable cell line; details: antagonist Kb vs standard agonist PGE2; HEK-293 EBNA cells
# T3 construct: expressed in transfected cells
# T3 sequence (P34995 1-402): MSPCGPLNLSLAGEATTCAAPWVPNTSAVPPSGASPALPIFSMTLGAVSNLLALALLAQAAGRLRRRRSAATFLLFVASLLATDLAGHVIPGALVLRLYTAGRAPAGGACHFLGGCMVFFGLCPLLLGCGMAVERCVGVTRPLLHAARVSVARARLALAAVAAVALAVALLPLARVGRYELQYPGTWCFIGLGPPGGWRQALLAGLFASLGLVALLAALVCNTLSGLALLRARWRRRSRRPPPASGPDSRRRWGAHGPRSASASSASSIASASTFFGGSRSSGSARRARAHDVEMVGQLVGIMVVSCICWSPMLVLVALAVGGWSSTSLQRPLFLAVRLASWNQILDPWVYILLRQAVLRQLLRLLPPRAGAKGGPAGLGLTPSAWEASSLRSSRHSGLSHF
# Procedure: as §1, §2, §3, §4
# [4] = molecular target: T4, human prostanoid EP2 receptor (Homo sapiens, UniProt P43116); test: FLIPR Ca2+ signaling PG antagonist assay, EP2 stable cell line; details: antagonist Kb vs standard agonist PGE2; HEK-293 EBNA cells with chimeric Gqs
# T4 construct: expressed in transfected cells
# T4 sequence (P43116 whole entry): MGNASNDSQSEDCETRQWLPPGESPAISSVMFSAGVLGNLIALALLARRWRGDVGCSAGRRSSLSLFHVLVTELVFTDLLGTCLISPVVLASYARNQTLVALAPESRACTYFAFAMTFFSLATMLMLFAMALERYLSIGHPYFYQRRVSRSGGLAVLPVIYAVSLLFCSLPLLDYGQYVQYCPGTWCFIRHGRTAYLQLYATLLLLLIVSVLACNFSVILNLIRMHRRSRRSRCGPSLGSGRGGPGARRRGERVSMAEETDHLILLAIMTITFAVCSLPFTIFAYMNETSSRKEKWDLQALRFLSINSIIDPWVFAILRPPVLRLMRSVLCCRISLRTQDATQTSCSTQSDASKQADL
# Procedure: as §1, §2, §3, §4
# [5] = molecular target: T5, human prostanoid EP3 receptor (Homo sapiens, UniProt P43115); test: FLIPR Ca2+ signaling PG antagonist assay, EP3 stable cell line; details: antagonist Kb vs standard agonist PGE2; HEK-293 EBNA cells with chimeric Gqi
# T5 construct: expressed in transfected cells
# T5 sequence (P43115 1-390): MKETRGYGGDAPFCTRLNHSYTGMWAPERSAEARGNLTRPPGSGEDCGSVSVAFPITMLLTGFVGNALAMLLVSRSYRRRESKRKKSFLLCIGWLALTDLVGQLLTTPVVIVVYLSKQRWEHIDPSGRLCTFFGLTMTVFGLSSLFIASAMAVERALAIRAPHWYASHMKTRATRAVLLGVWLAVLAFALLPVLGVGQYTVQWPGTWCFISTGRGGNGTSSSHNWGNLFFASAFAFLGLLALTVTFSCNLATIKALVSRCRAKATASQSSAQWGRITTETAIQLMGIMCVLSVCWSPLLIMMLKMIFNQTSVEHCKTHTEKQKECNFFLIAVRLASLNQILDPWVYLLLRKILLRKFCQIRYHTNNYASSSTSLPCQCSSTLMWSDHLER
# Procedure: as §1, §2, §3, §4
# [6] = molecular target: T6, human prostanoid EP4 receptor (Homo sapiens, UniProt P35408); test: FLIPR Ca2+ signaling PG antagonist assay, EP4 stable cell line; details: antagonist Kb vs standard agonist PGE2; HEK-293 EBNA cells with chimeric Gqs
# T6 construct: expressed in transfected cells
# T6 sequence (P35408 whole entry): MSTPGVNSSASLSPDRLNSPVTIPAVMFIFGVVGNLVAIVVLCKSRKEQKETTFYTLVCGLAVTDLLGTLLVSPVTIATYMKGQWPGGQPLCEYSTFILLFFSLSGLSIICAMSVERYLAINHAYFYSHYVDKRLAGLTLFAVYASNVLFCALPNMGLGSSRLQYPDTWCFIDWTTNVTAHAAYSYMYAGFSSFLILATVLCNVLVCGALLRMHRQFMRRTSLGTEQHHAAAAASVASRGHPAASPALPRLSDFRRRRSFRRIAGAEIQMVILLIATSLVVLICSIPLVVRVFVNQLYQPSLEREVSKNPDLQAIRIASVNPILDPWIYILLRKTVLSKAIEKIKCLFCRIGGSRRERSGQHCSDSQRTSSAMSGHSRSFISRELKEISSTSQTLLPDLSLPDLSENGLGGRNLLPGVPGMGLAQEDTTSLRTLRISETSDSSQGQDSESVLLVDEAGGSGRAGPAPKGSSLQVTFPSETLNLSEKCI
# Procedure: as §1, §2, §3, §4
# [7] = molecular target: T7, human prostanoid IP receptor (Homo sapiens, UniProt P43119); test: FLIPR Ca2+ signaling PG antagonist assay, IP stable cell line; details: antagonist Kb vs standard agonist Cicaprost; HEK-293 EBNA cells
# T7 construct: expressed in transfected cells
# T7 sequence (P43119 whole entry): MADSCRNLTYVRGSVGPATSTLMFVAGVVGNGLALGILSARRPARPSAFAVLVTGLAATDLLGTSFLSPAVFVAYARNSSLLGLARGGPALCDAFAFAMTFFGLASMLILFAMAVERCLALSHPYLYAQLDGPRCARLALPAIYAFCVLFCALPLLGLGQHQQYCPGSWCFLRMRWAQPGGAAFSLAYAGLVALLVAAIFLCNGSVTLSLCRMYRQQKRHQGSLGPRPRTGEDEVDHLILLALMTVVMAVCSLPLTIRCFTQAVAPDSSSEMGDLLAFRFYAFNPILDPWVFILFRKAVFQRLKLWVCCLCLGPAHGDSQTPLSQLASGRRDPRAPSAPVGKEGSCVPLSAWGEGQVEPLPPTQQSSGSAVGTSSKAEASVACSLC
# Procedure: as §1, §2, §3, §4
# [8] = molecular target: T8, human prostanoid TP receptor (Homo sapiens, UniProt P21731); test: FLIPR Ca2+ signaling PG antagonist assay, TP stable cell line; details: antagonist Kb vs standard agonist U-46619; HEK-293 EBNA cells
# T8 construct: expressed in transfected cells
# T8 sequence (P21731 1-343): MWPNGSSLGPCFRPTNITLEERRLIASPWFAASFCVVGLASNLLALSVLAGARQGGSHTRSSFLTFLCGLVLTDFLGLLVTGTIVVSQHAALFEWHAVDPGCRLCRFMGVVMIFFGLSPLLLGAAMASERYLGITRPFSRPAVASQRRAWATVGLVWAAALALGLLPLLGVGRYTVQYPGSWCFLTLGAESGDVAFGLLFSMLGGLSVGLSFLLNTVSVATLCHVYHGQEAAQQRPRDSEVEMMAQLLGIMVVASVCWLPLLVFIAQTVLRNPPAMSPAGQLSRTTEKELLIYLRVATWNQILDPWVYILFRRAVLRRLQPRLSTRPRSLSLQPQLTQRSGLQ
# Procedure: as §1, §2, §3, §4
Structure (SMILES),Kb [1] [nM],DP1 (Kb) [2],Kb [3] [nM],Kb [4] [nM],Kb [5] [nM],Kb [6] [nM],Kb [7] [nM],Kb [8] [nM],Kb [2] [nM],TP (Kb) [8]
"Cc1cc(OCC(=O)O)nn1Cc1cc(Cl)ccc1OCC(C)C [Example 4, [1-(5-chloro-2-isobutoxy-benzyl)-5-methyl-1H-pyrazol-3-yloxy]-acetic acid]",1700,PAg,110,≥ 10000,≥ 10000,≥ 10000,≥ 10000,15,–,–
"CCC(CC)COc1ccc(Br)cc1Cn1nc(OCC(=O)O)cc1C [Example 1, {1-[5-bromo-2-(2-ethyl-butoxy)-benzyl]-5-methyl-1H-pyrazol-3-yl}-oxaacetic acid]",250,–,40,≥ 10000,≥ 10000,130,220,2,640,–
"CCC(CC)COc1ccc(Cl)cc1Cn1nc(OCC(=O)O)cc1C [Example 2, {1-[5-chloro-2-(2-ethyl-butoxy)-benzyl]-5-methyl-1H-pyrazol-3-yloxy}-acetic acid]",980,–,75,≥ 10000,≥ 10000,350,600,–,500,PAg
"Cc1cc(OCC(=O)O)nn1Cc1cc(Cl)ccc1OCc1ccc(Cl)cc1 [Example 3, {1-[5-chloro-2-(4-chloro-benzyloxy)-benzyl]-5-methyl-1H-pyrazol-3-yloxy}-acetic acid]",220,–,9,340,3700,≥ 10000,500,1,1000,–
